Laboratory results as given in patent US20160310519A1, “MODIFIED G-QUADRUPLEX NANOPARTICLES” (NANYANG TECHNOLOGICAL UNIVERSITY, priority 2013, published 2016).

Tests used:
[1] = CD melting experiments of multiple N2-modified G-quadruplexes in low salt; format: physicochemical; settings: low salt (1 mM KPi+1 mM KCl), CD at 290 nm
Method: CD melting experiments were performed for the unmodified sequence and for sequences containing multiple N2-modifications. Samples contained 4-5 μM DNA by strand concentration in 1 mM KCl and 1 mM KPi. Samples were heated to 95° C. (98° C. for N2-Ball-with-Hair sample) and cooled to 15° C. at a rate of 0.2° C./min. Samples were then heated in a similar manner. Data was recorded every 0.5° C. at 290 nm and corrected by subtraction at 320 nm. Normalized melting curves are used to determine the melting temperature (Tm) of modified sequences, which is taken as an average of the heating and cooling curves.
The designed sequences were tested in a “low salt” solution of 1 mM KPi+1 mM KCl. Of the sequences tested with multiple modifications, SEQ ID Nos. 38, 39, 41 and 42 were determined to maintain the (3+1) conformation by analysis of ^1H NMR and CD spectra, which were highly similar to SEQ ID NO:1 (FIG. 4).
Additionally, these changes in stability were roughly equivalent to the sum of stability changes observed for the individual single-position substitutions.

[2] = Temperature dependent CD spectra under physiological salt conditions; format: physicochemical
Method: Spectra were recorded on a JASCO-815 spectropolarimeter (Tokyo, Japan). Samples contained a DNA strand concentration of 4-5 μM. […] Spectra were normalized through subtracting by the CD absorbance at 320 nm and dividing by concentration of the sample determined by concurrent UV absorption measurements. Samples were annealed prior to recording of CD spectra by heating to 100° C. and allowed to cool slowly at room temperature.
The stability of the “Ball with Hair” structure formed by SEQ ID NO:42 under “physiological salt” conditions (10 mM Kpi+130 mM KCL) was similar to those experienced in a cellular environment. NMR spectra of SEQ ID NO:42 under physiological salt conditions matched the spectra recorded in low salt conditions.

Substance | Δ Tm [1] | melting temperature [1] [°C] | Δ Tm ([1]; listed as ball with hair) [°C] | melting temperature ([2]; physiological K+ conditions (10 mM KPi+130 mM KCl)) [°C] | CD signal intensity observed at 95° C. ([2]; physiological salt (10 mM KPi+130 mM KCl), 95° C.)
SEQ ID NO:38: contains two ^HexG substitutions into separate grooves in positions that were highly stabilizing in the single-substitutions studies (TTNGGTTANGGTTAGGGTTAGGGA; two N2-hexyl guanine modifications, chemistry not fully specified) | +6.9 °C |  |  |  | 
SEQ ID NO:39: contains two ^MetG substitutions of guanines that neighbors within the wide groove (TTGGGTTAGNNTTAGGGTTAGGGA; two N2-methyl guanine modifications, chemistry not fully specified) | +18.2 °C |  |  |  | 
SEQ ID NO:41: designed to contain a modification in each groove of the G-quadruplex nanoparticle (TTNGGTTANGNTTANGGTTAGGGA; DNA, backbone and the base at N not given here; N2-modified guanines at marked positions) | +26.6 °C |  |  |  | 
SEQ ID NO:42: containing eight ^HexG modifications towards the design of a "Ball with Hair" type of nanoparticle (TTNNGTTANGNTTANGNTTAGNNA; eight N2-hexyl guanine modifications, chemistry not fully specified) | +46.2 °C | 91.7 | 46 | > 95 | more than 80%
SEQ ID NO:43: contains a variety of 8 N2-modifications aimed to maximize the thermal stability (TTNGGTTANGNTTANGNTTANGNA; DNA, backbone and the base at N not given here; further chemistry not fully specified) | +35.6 °C |  |  |  | 
